Reference: paper PMC12326358, “Effect of Quantitative Structural Properties and Drug Formulation in Four Cannabinoids (Cannabidiol, Cannabigerol, Cannabichromene, and Cannabinol) on Their Lymphatic Transport after Enteral Administration in Rats” (Molecular Pharmaceutics, 2025)
Where “and” joins values, the source holds several entries; their conditions need not be identical. Equal entries are not always repeated. Entries after “also recorded” stand apart in the source; their conditions may differ. Where two headings read alike, the source gives them in different places.

What was measured:
[1] = Lymphatic transport studies in anesthetized mesenteric lymph duct cannulated rats; conditions: for FRL, relative bioavailability via lymph / bioavailability / Kp: intraduodenal, mean ± SD; for FRL, relative bioavailability via lymph: FRL=FAL/F; for bioavailability: F, total absolute bioavailability, sum of FAL and FAP; for Kp: Lymph/serum AUC ratio
Procedure: Anesthetized mesenteric lymph duct cannulated rat model was used for the lymphatic transport measurement as previously described with slight modifications. Briefly, rats were left on normal diet and given 1 mL of olive oil 1 h prior to the surgery to visualize the mesenteric lymph (milky white color). They were anesthetized with intramuscular xylazine 5 mg/kg and ketamine 100 mg/kg after a rapid isoflurane induction. A transverse laparotomy was performed. […] The catheter was fixed in place with two to three drops of tissue adhesive (Histoacryl, B. Braun Surgical, S.A., Spain). A duodenal catheter was also placed (polyethylene, 0.97 mm O.D., 0.58 mm I.D.) via a small duodenotomy and fixed with tissue adhesive. The abdominal wall was sutured in two layers, with both catheters leaving the abdominal cavity through the right flank. At the end of the procedure, the right jugular vein was cannulated for blood sampling.
The rats were then placed on heated pads and covered with blankets to prevent heat loss. Cannabinoids in oil solution or nanoemulsion were then dosed slowly via duodenal catheter over 30 min. The administered dose was 10 mg of CBD and 15 mg of CBG, CBC and CBN (volume 1 mL). Whole lymph was collected in regularly changed Eppendorf tubes from the time the dosing started. When the dosing was finished, continuous hydration with normal saline at a rate of 3 mL/h intraduodenally followed using an infusion pump (Perfusor compactplus, B. Braun Melsungen AG, Germany). Anesthesia was maintained throughout the rest of the experiment and additional ketamine intramuscular boluses were given whenever necessary. Eppendorf tubes were changed hourly and systemic blood was drawn at the same time points. Blood samples were centrifuged (4500 rpm for 10 min) and serum was extracted. Lymph volume was measured gravimetrically and the samples were further processed without additional adjustment. All samples were stored in −80 °C until analysis. Laboratory was unaware of animal assignment to the particular experimental groups (laboratory blinding).
Serum and lymph concentrations in all studies were dose-normalized to 1 mg/kg prior to further calculations. AUC values were determined using linear trapezoidal rule. Exact actual sampling times were used for this purpose. Scheduled sampling times were used for mean concentration plotting in the graphs. PK-solver add-on for MS Excel was used for all basic pharmacokinetic calculations. GraphPad Prism version 10.2.2 (GraphPad Software, San Diego, CA, USA) was used for all statistical analyses and graph plotting. Unpaired Student’s t test was used to compare pharmacokinetic and lymphatic transport parameters between the experimental groups. Level of significance was set to p < 0.05.
Lymphatic transport parameters were defined and calculated as previously described. , Briefly, absolute bioavailability via lymph (FAL) was defined as percentage of administered drug dose absorbed into the lymph. It was determined directly from lymph volume and drug concentration in lymph duct cannulated rats. Absolute bioavailability via portal vein (FAP) was analogically defined as percentage of administered drug dose reaching the systemic circulation after direct absorption into blood. It was calculated using equation 1 FAP=AUCent/AUCiv where AUCent is the area under the dose-normalized blood concentration–time curve after enteral dosing in lymph duct cannulated (i.e., lymph deprived) rats and AUCiv is the respective parameter in a separate intravenously dosed group. Total absolute bioavailability (F) in lymph duct cannulated rats was calculated as a sum of FAL and FAP. In normal animals with no lymph duct cannulation, F was calculated using standard formula for oral bioavailability: 2 F=AUCpo/AUCiv Relative bioavailability via lymph (FRL) was defined as the percentage of systemically available drug that was absorbed via lymph. It was calculated using the equation 3 FRL=FAL/F

[2] = Log P measurement, octanol–water system; format: physicochemical
Procedure: There are only calculated log P values available for CBD, CBG, CBC and CBN (range 6.1–7.4). Therefore, log P was measured experimentally for all four cannabinoids during this study. The partition coefficient describes the distribution of a tested compound in a two-phase octanol–water system. It is defined as a ratio of concentrations of the un-ionized compound in octanol and water at equilibrium. Cannabinoids were weighed (2 mg) and dissolved in 2.5 mL of octanol, followed by the addition of 2.5 mL of deionized water. The mixture was shaken for 2 h and then allowed to separate for 24 h. Twenty μL of the aqueous (bottom) phase was transferred into an LC vial, diluted with 60 μL of an appropriate IS at a concentration of 30 ng/mL, and analyzed using the aforementioned UHPLC-MS/MS method. The experiment was repeated five times for each cannabinoid.
Due to the highly lipophilic character of cannabinoids, their concentration in the organic phase is several orders of magnitude higher than the concentration in the aqueous phase. As a result, the difference in the total amount of cannabinoids and the amount present in the organic phase is very small and falls within the experimental error of the analytical method. Therefore, log P values were calculated based on the measured cannabinoid concentration in the aqueous phase, while the concentration in the octanol phase was calculated from the initial amount of the cannabinoid used and its measured concentration in the aqueous phase. […] Due to the very low concentrations of CBD and CBC in the aqueous phase, which fell below the LOQ of both methods, we were unable to determine the log P for these two cannabinoids.

[3] = design: method as in published earlier (Table 1 footnote a); conditions: nanoemulsion, IV, rats, 1 mg CBD, mean ± SD, ref published earlier (Table 1 footnote a), cited from earlier work
[4] = man, cited from earlier work
[5] = cited from earlier work; for absolute oral bioavailability: species not printed at place, ref reports published so far
[6] = dogs, oral; cited from earlier work
[7] = nanoemulsion compared to oil solution, lymph duct-cannulated rats
[8] = nanoemulsion, lymph duct-cannulated rats
[9] = oil solution, lymph duct-cannulated rats
[10] = rat, in vivo, nanoemulsion, lymph duct-cannulated rats
[11] = rat, in vivo, oil solution, lymph duct-cannulated rats
[12] = octanol–water, from measured aqueous phase concentration, lower bounds based on LOQ, n = 5, read-out: Log P

C=C(C)[C@@H]1CCC(C)=C[C@H]1c1c(O)cc(CCCCC)cc1O [CBD, cannabidiol]
drop of relative bioavailability via lymph (FRL) [1, 7]: 74%
increase in absolute bioavailability via lymph (FAL) [1, 7]: did not increase; also recorded: no increase
increase in absolute bioavailability via portal vein (FAP) [1, 7]: 11 fold
FRL, relative bioavailability via lymph [1, 8]: 13% and 13 ± 8 %
FRL, relative bioavailability via lymph [1, 9]: 50 ± 12%
bioavailability [1, 10]: 24 ± 9%
bioavailability [1, 11]: 4 ± 1.5%
Kp [1, 10]: 100 ± 60
Kp [1, 11]: 699 ± 333
logP [2, 12]: > 6.3
AUC(0-inf) ([3]; dose-normalized to 1 mg/kg): 623 ± 141 ng·h/mL
T1/2 [3]: 2.5 ± 0.5 h
Vss [3]: 2.9 ± 1.1 L/kg
Cmax ([3]; serum, dose-normalized to 1 mg/kg): 845 ± 253 ng/mL
oral bioavailability ([4]; estimated): < 10%
bioavailability increase when taken with food ([4]; oral): up to 4 fold
oral bioavailability ([5]; rats, lipid-free formulation): 8.5% and 8%
oral bioavailability ([5]; rats, long-chain triglycerides-based formulation): 22%
absolute oral bioavailability ([5]; sunflower oil-based microemulsion): 25%
absolute oral bioavailability ([5]; sunflower oil): 14%

CCCCCc1cc(O)c2c(c1)OC(C)(CCC=C(C)C)C=C2 (centres unmarked) [CBC, cannabichromene]
drop of relative bioavailability via lymph (FRL) [1, 7]: did not reach statistical significance
increase in absolute bioavailability via lymph (FAL) [1, 7]: 3 fold
increase in absolute bioavailability via portal vein (FAP) [1, 7]: 8 fold
FRL, relative bioavailability via lymph [1, 8]: 47% and 47 ± 14%
FRL, relative bioavailability via lymph [1, 9]: 63 ± 17%
bioavailability [1, 10]: 29 ± 7%
bioavailability [1, 11]: 6.6 ± 3.9%
Kp [1, 10]: 530 ± 239
Kp [1, 11]: 1260 ± 676
logP [2, 12]: > 6.7
Tmax ([4]; oral administration): 2 to 4 h

CCCCCc1cc(O)c(C/C=C(\C)CCC=C(C)C)c(O)c1 [CBG, cannabigerol]
drop of relative bioavailability via lymph (FRL) ([1]; rat, in vivo): 75%
increase in absolute bioavailability via lymph (FAL) ([1]; rat, in vivo): 8 fold
increase in absolute bioavailability via portal vein (FAP) ([1]; rat, in vivo): 71 fold
logP [2]: 7.2
average Tmax [6]: 0.75 h

CCCCCc1cc(O)c2c(c1)OC(C)(C)c1ccc(C)cc1-2 [CBN, cannabinol]
drop of relative bioavailability via lymph (FRL) [1, 7]: 48%
increase in absolute bioavailability via lymph (FAL) [1, 7]: 3 fold
increase in absolute bioavailability via portal vein (FAP) [1, 7]: 13 fold
FRL, relative bioavailability via lymph [1, 8]: 36% and 36 ± 20 %
FRL, relative bioavailability via lymph [1, 9]: 69 ± 13%
bioavailability [1, 10]: 29 ± 10%
bioavailability [1, 11]: 5.3 ± 2%
Kp [1, 10]: 274 ± 231
Kp [1, 11]: 976 ± 519
logP [2, 12]: 6.2
Tmax ([5]; rats, oral administration): 1.5 to 3 h
